Where “and” joins values, the source holds several entries; their conditions need not be identical. Equal values may be shown once. Bounds are passed on as bounds.

One data set has as its target α-synuclein fibrils (Homo sapiens (Human), UniProt P37840). Description: Thioflavin T fluorescence competitive assay. Conditions: for Ki: read-out: Thioflavin T assay Ki, competition with ThT on recombinant α-synuclein fibrils, at least three experiments.
Another data set addresses Fibrils 4174 (Homo sapiens, UniProt P37840). Description: 3H radioligand competition, Fibrils 4174. Type of data set: binding. Conditions: hot concentration 2 nM. On the procedure: A series of compounds were synthesized and the Ki (nM) in the presence of Fibrils 4174, PD-seeded fibrils (using Tg-1-90B as the radioligand), AD Tissue 6843 and/or AD Tissue 2846 was determined. In each experiment, the “hot” concentration was 2 nM.
A general note: In a radioligand displacement assay an active substance lowers the binding of a labelled ligand.

In data set [1] the target is Banner PD-seeded α-synuclein fibrils (Homo sapiens (Human), UniProt P37840). Description: Homologous competition radioligand binding assay, PD-seeded fibrils. On the procedure:
The equilibrium dissociation constant (Kd) for a series of compounds was determined using direct radioactive competitive binding assays (homologous or heterologous) with either recombinant α-synuclein fibrils or brain tissue homogenates from AD cases.
Recombinant protein was produced in E. coli using protocols based on previously described methods for α-synuclein [Giasson, B. I., et al., “Mutant and wild type human alpha-synucleins assemble into elongated filaments with distinct morphologies in vitro,” 1999, J Biol. Chem., 274:7619-7622; Huang, C., et al., “A new method for purification of recombinant human alpha-synuclein in Escherichia coli,” 2005, Protein Expr Purif, 42:173-177; Yu, L., et al, “Synthesis and in vitro evaluation of á-synuclein ligands,” 2012, Bioorg. Med. Chem., 20:4625-4634] and tau [Li, W., et al., “Characterization of two VQIXXK motifs for tau fibrillization in vitro,” 2006, Biochemistry, 45:15692-15701]. BL21(DE3)RIL E. coli were transformed with a pRK172 bacterial expression plasmid containing the human α-synuclein coding sequence. […]. Overnight cultures were centrifuged at 3,900×g for 10 min at 25° C. and the bacterial pellets were resuspended by gentle vortexing in 20 ml osmotic shock buffer (30 mM Tris-HCl, 2 mM EDTA, 40% Sucrose, pH 7.2) and then incubated at room temperature for 10 min. The cell suspension was then centrifuged at 8,000×g for 10 min at 25° C. and the pellet was resuspended in 22.5 ml cold H2O before adding 9.4 μl 2 M MgCl2 to each tube. The suspension was incubated on ice for 3 min prior to centrifugation at 20,000×g for 15 min at 4° C. After the supernatant was transferred to a fresh tube, streptomycin was added to a final concentration of 10 mg/ml and centrifuged at 20,000×g for 15 min at 4° C. The supernatant from this step was collected and dithiothreitol (DTT) and Tris-HCl pH 8.0 were added to final concentrations of 1 mM and 20 mM respectively, before boiling for 10 min to precipitate heat-sensitive proteins, which were pelleted at 20,000×g for 15 min at 4° C. The supernatant was collected and filtered through a 0.45 μm surfactant-free cellulose acetate filter (Corning) before loading onto a 1 ml DEAE Sepharose column equilibrated in 20 mM Tris-HCl pH 8.0, 1 mM EDTA, and 1 mM DTT. The DEAE column was washed with 20 mM Tris-HCl pH 8.0, 1 mM EDTA, 1 mM DTT before eluting α-synuclein protein in 20 mM Tris-HCl pH 8.0 buffer with 1 mM EDTA, 1 mM DTT and 0.3 M NaCl. Purified α-synuclein protein was dialyzed overnight in 10 mM Tris-HCl pH 7.6, 50 mM NaCl, 1 mM DTT.
Purified recombinant α-synuclein monomer (2 mg/ml) was incubated in 20 mM Tris-HCl, pH 8.0, 100 mM NaCl for 72 h at 37 C with shaking at 1000 rpm in an Eppendorf Thermomixer. […] The concentration of α-synuclein monomer in the supernatant was determined in a BCA protein assay according to the manufacturer's instructions, using a bovine serum albumin (BSA) standard curve. The measured decrease in α-synuclein monomer concentration was used to determine the concentration of fibrils in the 72 h fibril reaction mixture. […]
These direct binding assays used a fixed concentration of either fibrils or PD/AD tissue and the radioligand (e.g., [^18F]28) and varying concentration ranges of corresponding homologous non-radiolabeled standard reference compound. […] Reactions were incubated at 37° C. for 1 h before quantifying bound radioligand. […]

The target in another data set is PD-seeded fibrils (Homo sapiens (Human), UniProt P37840). Description: Heterologous competition binding assay with [18F]TZ61-44 as radioligand. Conditions: radioligand [18F]TZ61-44, 25 nM PD-seeded fibrils; for Ki: Cheng-Prusoff from EC50. As to the method:
The equilibrium inhibitor constant (Ki) of a series of compounds was measured using heterologous radioactive binding assays with [^18F]TZ61-44, […], or [^125I]TZ61-84 as the screening radioligands. EC50 values for each compound were determined by fitting the data to the equation Y=Bottom+(Top−Bottom)/(1+(X−Log EC50)^−Hillcoefficient) using nonlinear regression by Kaleidagraph software, where Top and Bottom are the Y values for the top and bottom plateaus of the binding curve. The Ki values were derived from the EC50 values using the Cheng-Prusoff equation: Ki=EC50/(1+[radioligand]/Kd). FIGS. 5A-5E show the inhibition curves for TG-1-90B, TZ55-101, TZ61-84, TZ55-107, and TZ55-81 using [^18F]TZ61-44 as the radioligand. FIG. 11B-C show the inhibition curves for two separate experiments on PD fibrils for TZ55-101 using […] as the radioligand. FIGS. 12A-12F show the inhibition curves for TZ66-3, TZ64-015, TZ64-016, TZ64-018, TZ64-019, and TZ64-020 using [^18F]TZ61-44 as the radioligand. FIGS. 13A-13D show the inhibition curves for TZ66-9, TZ66-8, and TZ55-107 using [^18F]TZ61-44 as the radioligand.

Data set [2] is described as follows: MicroPET studies in the brain of nonhuman primate. Type of data set: in vivo. Conditions: male adult cynomolgus macaca. As to the method: 9.93 mCi of [^18F]TZ61-44 was injected into a male adult cynomolgus macaca (9.25 Kg) 10.57 mCi of [^11C]TZ55-107 was injected into was injected into a male adult cynomolgus macaca (9.40 Kg) A simplified reference tissue model (SRTM) and spatially-constraint linear regression algorithm was used to generate R1 and DVR images (FIGS. 18A and 18B).
FIGS. 19A and 19B graphically depict the uptake of labeled TZ55-107 and TZ61-44 in the animals. [^18F]TZ61-44 had highest cortical uptake (SUV) of ˜3.48 at 4 min and the uptake ratio at 4 min versus 120 min reached ˜4.2 (FIG. 19A); [^11C]TZ55-107 had highest cortical uptake of ˜6.40 at 4 min, and the uptake ratio at 4 min versus 120 min reached ˜6.30 (FIG. 19B).

In the case of `COc1ccc2nc(-c3noc(-c4ccnc(OC)c4)n3)ccc2c1` [Compound 27, 5-(2-Methoxypyridin-4-yl)-3-(6-methoxyquinolin-2-yl)-1,2,4-oxadiazole], on α-synuclein fibrils, the Ki came to 630 nM.

With `COCOc1ccc2nc(-c3noc(-c4ccnc(OC)c4)n3)ccc2c1` [Compound 29, 3-(6-(Methoxymethoxy)quinolin-2-yl)-5-(2-methoxypyridin-4-yl)-1,2,4-oxadiazole], the Ki at α-synuclein fibrils is greater than 1000 nM.

`COc1cc(-c2nc(-c3ccc4cc(OC(C)C)ccc4n3)no2)ccn1` [Compound 30, 3-(6-Isopropoxyquinolin-2-yl)-5-(2-methoxypyridin-4-yl)-1,2,4-oxadiazole]: on α-synuclein fibrils, the Ki is greater than 1000 nM.

`COc1ccc2nc(-c3noc(-c4ccn5ccnc5c4)n3)ccc2c1` [Compound 31, 5-(Imidazo[1,2-c]pyridin-7-yl)-3-(6-methoxyquinolin-2-yl)-1,2,4-oxadiazole]: the Ki on α-synuclein fibrils is greater than 1000 nM.

For the compound `CC(C)Oc1ccc2nc(-c3noc(-c4ccn5ccnc5c4)n3)ccc2c1` [Compound 32, 5-(Imidazo[1,2-c]pyridin-7-yl)-3-(6-isopropoxyquinolin-2-yl)-1,2,4-oxadiazole], the Ki at α-synuclein fibrils was greater than 1000 nM.

Regarding `FCCOc1ccc2nc(-c3noc(-c4ccn5ccnc5c4)n3)ccc2c1` [Compound 33, 3-(6-(2-Fluoroethoxy)quinolin-2-yl)-5-(imidazo[1,2-c]pyridin-7-yl)-1,2,4-oxadiazole], the Ki at α-synuclein fibrils was greater than 1000 nM.

Regarding `COCOc1ccc2nc(-c3noc(-c4ccn5ccnc5c4)n3)ccc2c1` [Compound 34, 5-(Imidazo[1,2-c]pyridin-7-yl)-3-(6-(methoxymethoxy)-quinolin-2-yl)-1,2,4-oxadiazole], the Ki at α-synuclein fibrils was greater than 1000 nM.

In turn, `COc1ccc2cc(-c3noc(-c4ccnc(F)c4)n3)ccc2c1` [TZ46-102] showed a Ki at Fibrils 4174 of 203 nM.

For `COc1ccc2nc(-c3noc(-c4cscn4)n3)ccc2c1` [TZ46-117], at Fibrils 4174, the affinity, expressed as Ki, was 156 nM.

Turning to `COc1ccc2nc(-c3noc(-c4cocn4)n3)ccc2c1` [TZ46-120], affinity on Fibrils 4174 was put at a Ki of 646 nM.

`COc1ccc2nc(-c3noc(-c4ccc5c(c4)OCO5)n3)ccc2c1` [TZ46-136]: on Fibrils 4174, the Ki is 162 nM.

On Fibrils 4174, `COc1cccc(-c2nc(-c3ccc4cc(OC)ccc4n3)no2)c1` [TZ46-139] yielded a Ki of 222 nM.

Turning to `COc1ccc2nc(Nc3ccnc(OC)c3)ccc2c1` [TZ55-107], the “binding affinity towards PD / α-synuclein fibrils” value in data set [1] (preliminary / initial competitive binding assays) is listed as “good binding affinity”. For the same compound, in data set [1] (preliminary binding assays), the “selectivity” value is given as “moderate selectivity”. Moreover, at PD-seeded fibrils, the EC50 was 24 nM and 36 nM; the Ki is 22 nM and 34 nM. Moreover, the “highest cortical uptake (SUV)” value in data set [2] (brain cortex, at 4 min) is reported as roughly 6.40 SUV. Further, in data set [2] (brain cortex), the “uptake ratio at 4 min versus 120 min” value is roughly 6.30. Also, the “blood brain barrier penetration” value in data set [2] is on record as “able to penetrate the blood brain barrier”.

At PD-seeded fibrils, `COc1ccc(Nc2ccc3cc(F)ccc3n2)cn1` [TZ64-013] displayed an EC50 of 29 nM and a Ki of 27 nM.

At PD-seeded fibrils, `COc1ccc(Nc2ccc3c(F)cccc3n2)cn1` [TZ64-015] gave an EC50 of 46 nM and a Ki of 43 nM.

Take `COc1ccc(Nc2ccc3cccc(F)c3n2)cn1` [TZ64-016]: on PD-seeded fibrils, it took 45 nM to reach a half-maximal effect (EC50) and the affinity, expressed as Ki, was 42 nM.

In the case of `COc1ccc2nc(-c3csc(C(C)=O)c3)ccc2c1` [TZ64-018], at PD-seeded fibrils, the EC50 was 127 nM and the Ki came to 119 nM.

As to `COc1ccc2nc(-c3coc(C=O)c3)ccc2c1` [TZ64-019], at PD-seeded fibrils, the EC50 amounted to 28 nM and the affinity, expressed as Ki, was 27 nM.

For `COc1ccc2nc(-c3coc(C=O)c3)ccc2c1` [TZ64-19], on α-synuclein fibrils, the “potency in Thioflavin T assay” value is “high potency” and the Ki worked out at 10.4 nM.

As for `COc1ccc2nc(-c3csc(C#N)c3)ccc2c1` [TZ64-020], at PD-seeded fibrils, a half-maximal response (EC50) required 37 nM and the affinity, expressed as Ki, was 34 nM.

In the case of `COc1ccc(Nc2ccc3cc([N+](=O)[O-])ccc3n2)cn1` [TZ64-55], at α-synuclein fibrils, the “potency in Thioflavin T assay” value is reported as “high potency” and the Ki was 15 nM.

For the compound `COc1ccc(Nc2ccc3c([N+](=O)[O-])cccc3n2)cn1` [TZ64-82], on α-synuclein fibrils, the “potency in Thioflavin T assay” value is given as “high potency” and the Ki is 18 nM.

With `COc1ccc2nc(Nc3coc(C=O)c3)ccc2c1` [TZ64-91], at α-synuclein fibrils, the “potency in Thioflavin T assay” value is on record as “high potency” and the Ki was 18 nM.

`COc1ccc(Nc2ccc3cc(I)ccc3n2)cn1` [TZ64-102]: at α-synuclein fibrils, the “potency in Thioflavin T assay” value is “high potency” and the Ki was determined as 12 nM.

Turning to `COc1ccc(Nc2ccc3cc(Br)ccc3n2)cn1` [TZ64-105], at α-synuclein fibrils, the “potency in Thioflavin T assay” value is given as “high potency” and the Ki worked out at 10 nM.

At PD-seeded fibrils, `COc1ccc2nc(-c3csc(C(=O)O)c3)ccc2c1` [TZ66-3] displayed an EC50 of 78 nM and a Ki of 73 nM.

At PD-seeded fibrils, `C=CCOCc1cc(-c2ccc3cc(OC)ccc3n2)cs1` [TZ66-8] returned an EC50 of 73 nM and a Ki of 68 nM.

Take `COCc1cc(-c2ccc3cc(OC)ccc3n2)cs1` [TZ66-9]: on PD-seeded fibrils, the response was half-maximal at 84 nM (EC50) and affinity was put at a Ki of 78 nM.

Regarding `COc1ccc2nc(-c3csc(/C=N/O)c3)ccc2c1` [TZ66-16], on α-synuclein fibrils, the “potency in Thioflavin T assay” value was “high potency” and the Ki amounted to 11 nM.

For the compound `COC(=O)c1cc(-c2ccc3cc(OC)ccc3n2)cs1` [TZ66-25], at α-synuclein fibrils, the “potency in Thioflavin T assay” value is recorded as “high potency” and the Ki was 17 nM.

The Ki is the equilibrium dissociation constant of an inhibitor or competing ligand from its target. As usually defined, the EC50 is the concentration giving half of the maximal effect. A low value points to higher potency in that assay.

Source of the values: patent US12012394B2, “Alpha-synuclein ligands” (Washington University, priority 2018, dated 2024).
